One experiment deals with mice embryos. Nature of the experiment: In-vitro embryo development in Quinn's Advantage cleavage media. The experiment is classed as cell-based. As to the method:
CBA male mice were bred with BL C57 female mice. The mice were kept on a 12 hours photoperiod schedule with unlimited water and food supply. About 6 to 8 weeks after receiving offspring, each female mouse was injected IP with 5IU of pregnant mare serum gonadotropin (PMSG).
After 48 hours each female mouse was injected IP with 5IU human chorionic gonadotropin (hCG). Male mice proven to be fertile were then put together with the superovulated females. The next morning the female mice were examined for the presence of copulatory plugs. Females that had copulatory plugs were euthanized after 24 hours (approximately 36 hours post-coitus) and embryos at 2 cell stage were retrieved from the oviducts as following: the oviducts were dissected in Quinn's Advantage cleavage media (SAGE, Origio, Denmark) and the embryos were transferred to 20 μL drops with Quinn's Advantage cleavage media (SAGE, Origio, Denmark) overlaid with mineral oil and cultured at 37.0° C. under 5% CO2 and atmospheric oxygen. The collected embryos continued to grow, i.e. in-vitro culture (IVC), until blastocyst/hatching stage. To test the effect of amorphous calcium carbonate, the Quinn's Advantage cleavage media (“cleavage media” hereinafter) was supplemented with different additives, i.e. amorphous calcium carbonate stabilized by polyphosphate (ACC-PP), crystalline calcium carbonate (CCC), polyphosphate (PP), phosphoserine (PS) or sodium carbonate ([…]). All supplements were added as a freshly prepared suspension; the preparation of the ACC supplements were performed under aseptic conditions. Untreated cleavage media (without addition of any additive) was used as a control (identified as Cont Q). The embryos were evaluated every day by microscope observation for a detection of the following stages: 2 cells, compactions stage, blastocysts formation and hatching stage. The fraction (in percent) of the embryos reached each stage was calculated (the number of 2 cells embryos was set as 100%).

The subject of experiment [1] is spinal cord-dorsal root ganglia (SC-DRG) slices. Nature of the experiment: Nerve fiber sprouting from SC-DRG co-cultures. In kind it is cell-based, rat. The following applies: Ca2+ 2 mM; 4 days of cultivation; portion of 6 explants. As to the method: Neural and Vascular Reconstruction Gel ([…] Labs proprietary) is composed of two main components: high molecular hyaluronic acid (HA, 3×10^6 Da, BTG, Israel) and laminin (Sigma). […] The gel has the texture of a viscous liquid, it adheres easily and successfully the embedded cells or explants to the plastic or glass substratum, and enabled nerve fiber outgrowth in a 3D pattern. All the experiments were carried out and authorized by the local ethics committee recognized by the Israeli authorities for animal experimentation. Stationary organotypic cultures of dorsal root ganglia (DRG) and spinal cord (SC) as well as cultures of dissociated brain cells were prepared from rat fetuses (15 days of gestation, Lewis inbred, Harlan, Israel). Immediately after dissection, the isolated tissues were cut with a […] tissue chopper into small slices (of 400 μm thickness). In these studies, two tissue culture strategies were used. […] In the second method, the tissue slices were further dissociated with a trypsin-EDTA solution for 30 min, and washed with a culture medium. Subsequently, the dissociated cells were added to a suspension of chitosan powder or gastrolith powder (micro carriers, MCs) and incubated in suspension at 37° C. for 4 days. […] The cultures were monitored by daily phase contrast microscopic observations starting from 24 hours after setting the cultures onward. […]

Another experiment deals with mdx cell line. As to conditions: final Ca2+ 2 mM.
In another experiment the test system is MBA-13 cells. Nature of the experiment: Differentiation of MBA13 stem cells to osteoblasts (Alizarin red, alkaline phosphatase staining). In kind it is cell-based. The following applies: additional 1 mM calcium (total 2.488 mM); 10 days; gelatin coating. The protocol:
Two days following thawing, MBA-13 cells (received from Prof. Dov Zipori, Weizmann Institute of Science) were re-suspended in recombinant trypsin solution and seeded on a 96 wells plate, (Day “0”) in a concentration of 1×10^4 cells/well using MSC Nutristem® XF basal medium (Biological Industries, cat #05-200-1A) supplemented with Mesenchymal stem cells (MSC) supplement mix medium (Biological Industries cat #05-201-06) in a ratio of 50 ml:300 μl. […] Row G in the plate was treated with MSCgo medium (total 1.488 mM calcium). Row H of the plate was treated with MSC NutriStem® XF nutrient basal medium+ supplement mix (total 1.488 mM calcium). On day 4, medium was exchanged with fresh preparations of ACC. […] Once the cells were fixated, two types of staining reagents were used to stain extracellular calcium or bone deposition in order to estimate osteoblasts functionality: (i) Alizarin red (Sigma A55333) and (ii) Alkaline Phosphatase (DAKO BCIP/NBT substrate system […]) as following: Alizarin red staining procedure-pH was adjusted to 4.2. Cells were washed twice with PBS and fixed with cold methanol for 5 minutes and then washed again with PBS. […] Then, washed 3 times with PBS and following removal of PBS remnants, 3 drops of BCIP/NBT kit solution was used to cover the cells including one empty well without any cells as control to quantify the assay. […]

A further experiment deals with skeletal muscle cultures. Nature of the experiment: Myotube formation and contractility in healthy skeletal muscle cultures. In kind it is cell-based, rat. As to conditions: added 1 mM, final Ca2+ 2 mM. As to the method:
Stationary skeletal muscle cultures were prepared from healthy 1 day new born rat (Sprague Dawley, Harlan, Israel). The muscle tissue was dissected from posterior legs and was thoroughly minced. Digestion was performed with Trypsin-EDTA while gentle trituration. After 30 min the supernatant, containing dissociated cells, was collected and a fresh Trypsin-EDTA was added. This procedure was repeated two more times. Then, all supernatants were pooled, centrifuged, and the cell pellet was re-suspended in Proliferation Medium. Cells were seeded in a Gelatin coated 12 wells culture plates, 1×10^5 cells/well containing 1 mL of Proliferation Medium. Two days later, the medium was changed to Fusion Medium, which was then changed twice a week. The cultures were monitored by daily phase contrast microscopic observations from 24 hours after setting the cultures and onward.
Stock solution of 1% porcine gelatin in water, was sterilized by autoclave. Once cooled, 500 μl of the solution were added to each well of the 12-wells culture plat. After incubation for 20 min at room temperature, the excess solution was removed, and the cells were seeded.
For the proliferation stage, cells were cultured in: DMEM/F12 (containing 1 mM Ca^2+)+10% FBS, 25 μg/mL Gentamycin, and 2 mM L-Glutamine. […]

Where [2] appears, read: Example 10, 1.7 mM, embryos of each of 4 mice grown separately, one line per mouse.
[3] abbreviates: Example 14, pooled embryos, 1.7 mM.
Setting [4] is: Example 11, 1.6 mM, pooled embryos of mice 3-7.
[5] abbreviates: Example 12, pooled embryos, 1.6 mM.
Where [6] appears, read: Example 15, 1.7 mM, pooled embryos of mice 3-6.
Setting [7] is: Example 15, 1.7 mM, sibling embryos (mouse 1: CCC; mouse 2: ACC-PP, NaCO3).

Where “and” joins values, the source holds several entries; their conditions need not be identical. Identical values can stand only once. Entries after “also recorded” stand apart in the source; their conditions may differ.

Experimental for mdx cell line: Cells from the Mdx cell line were seeded in a Gelatin coated 12 wells culture plate, 3×10^4 cells/well containing 1 mL of Proliferation Medium. Two days later (˜66% confluence), the medium was changed to Fusion Medium which was changed twice a week. The various calcium preparations were separately added to the Fusion Medium according to the treatment described in Table 3. Cultures were enriched with the various calcium preparations, at Ca^2+ concentration of 1 mM. Since the medium already contained 1 mM of calcium ions, then the final concentration of Ca2+ was of 2 mM
The effects of the tested calcium preparations on cell proliferation, fusion to form myotubes and muscle contraction were monitored by daily phase contrast microscopic observation.

As for `[Ca+2].[Cl-].[Cl-]` [CaCl2, calcium chloride], in the experiment on mice embryos (Example 7 Test A, 1.7 mM), the “Blast/d3, number of embryos” value is on record as 16; the “Blast/d3, portion of initial number of embryos” value (shortened to “Blast/d3, portion”) came out at 64%; the “Comp/d2, portion of initial number of embryos” value (shortened to “Comp/d2, portion”) is reported as 64%; the “comp/d2, number of embryos” value is 16. For the same molecule, in the experiment on mice embryos (Example 7 Test B, 1.7 mM), the “Blast/d3, number of embryos” value was found to be 20; the “Blast/d3, portion” value was found to be 74%; the “Comp/d2, portion” value turned out to be 70%; the “Hatch/d4, number of embryos” value came to 11. Besides, in the experiment with mice embryos (Example 7 Test B, 1.7 mM), the “Hatch/d4, portion of initial number of embryos” value is listed as 40.7% and the “comp/d2, number of embryos” value came out at 20. In the experiment on mice embryos (Example 8, 1.7 mM), the “Blast/d3, number of embryos” value is on record as 8; the “Blast/d3, portion” value is 80%; the “Comp/d2, portion” value was 30%; the “Hatch/d4, number of embryos” value amounted to 3. Besides, in the experiment on mice embryos (Example 8, 1.7 mM), the “Hatch/d4, portion of initial number of embryos” value amounted to 30% and the “comp/d2, number of embryos” value came out at 3. For the same molecule, in the experiment with mice embryos (Example 9, 1.7 mM), the “Blast/d3, number of embryos” value is listed as 24; the “Blast/d3, portion” value was 80%; the “Comp/d2, portion” value stood at 53.3%; the “Hatch/d4, number of embryos” value came to 13. Further, in the experiment with mice embryos (Example 9, 1.7 mM), the “Hatch/d4, portion of initial number of embryos” value is reported as 43.3% and the “comp/d2, number of embryos” value was found to be 16. Moreover, in the experiment with mice embryos (Example 10, 1.7 mM, embryos of each of 4 mice (5 months old) grown separately, one line per mouse), the “8Cell/d2, number of embryos” value is 0 (2×) and 4 and 2. Also, in the experiment with mice embryos (setting [2]), the “Blast/d3, number of embryos” value is 2 and 5 and 12 and 1; the “Blast/d3, portion” value was “(8.3) %; also recorded: (22.2) %; also recorded: (50) %; also recorded: (66.7) %”; the “Hatch/d4, number of embryos” value was 0 (2×) and 3 and 7; the “Hatch/d4, portion of initial number of embryos” value is “(0) %; also recorded: (30) %; also recorded: (41.2) %”. Besides, in the experiment on mice embryos (setting [2]), the “comp/d2, number of embryos” value was 3 and 6 and 10 and 1. Also, in the experiment with mice embryos (Example 14, 1.7 mM), the “effect on embryonic development (blastocysts and hatched blastocysts)” value is listed as “negative effect on embryonic development”. Besides, in the experiment on mice embryos (setting [3]), the “8 cell/d2, number of embryos” value was 6; the “Blast/d3, number of embryos” value came to 10; the “Blast/d3, portion” value worked out at 90.90%; the “Hatch/d4, number of embryos” value stood at 4. In the experiment with mice embryos (setting [3]), the “Hatch/d4, portion of initial number of embryos” value amounted to 36.36% and the “comp/d2, number of embryos” value amounted to 5. Besides, the “Cultures with axonal regeneration (%)” value in experiment [1] amounted to 50%. The “muscle contractions first observed, day after seeding” value with mdx cell line was at least 10 days. The “Alizarin Red staining (calcium deposition)” value in the experiment with MBA-13 cells is recorded as “weak signal”. The “muscle fibers after 7 days” value in the experiment with skeletal muscle cultures (7 days) was “fewer, thinner and shorter muscle fibers”. In addition, the “time to formation of myotubes” value in the experiment with skeletal muscle cultures (dry powder suspended in water) is “myotubes formation was observed later”.

In the case of polyphosphate [PP], in the experiment with mice embryos (setting [4]), the “8 cell/d2, number of embryos” value is 9; the “Blast/d3, number of embryos” value worked out at 20; the “Blast/d3, portion” value turned out to be 54.1%; the “Hatch/d4, number of embryos” value is 17. In addition, in the experiment with mice embryos (setting [4]), the “Hatch/d4, portion of initial number of embryos” value is on record as 45.9% and the “comp/d2, number of embryos” value was determined as 20. In the experiment with mice embryos (setting [5]), the “8 cell/d2, number of embryos” value turned out to be 6; the “Blast/d3, number of embryos” value turned out to be 34; the “Blast/d3, portion” value is listed as 94.44%; the “Hatch/d4, number of embryos” value is 16. Moreover, in the experiment with mice embryos (setting [5]), the “Hatch/d4, portion of initial number of embryos” value amounted to 44.44% and the “comp/d2, number of embryos” value worked out at 30.

For `O=C([O-])[O-].[Na+].[Na+]` [NaCO3, sodium carbonate], in the experiment with mice embryos (Example 15, 1.7 mM), the “embryonic development compared to control or ACC-PP” value was “very poor embryonic development”. Besides, in the experiment on mice embryos (setting [6]), the “8 cell/d2, number of embryos” value came to 2; the “Blast/d3, number of embryos” value turned out to be 0; the “Blast/d4, number of embryos” value was determined as 0; the “Hatch/d4, number of embryos” value came to 0. Further, in the experiment with mice embryos (setting [6]), the “Hatch/d4, portion of total number of embryos” value is “(0) %”; the “comp/d2, number of embryos” value is given as 7; the “degenerative, number of embryos” value is 1; the “early Blast/d3, number of embryos” value was 0. Also, in the experiment on mice embryos (setting [7]), the “8 cell/d2, number of embryos” value was determined as 6; the “Blast/d3, number of embryos” value stood at 2; the “Blast/d4, number of embryos” value was found to be 0; the “Hatch/d4, number of embryos” value is 2. In addition, in the experiment with mice embryos (setting [7]), the “Hatch/d4, portion of total number of embryos” value is “(12.5) %”; the “comp/d2, number of embryos” value stood at 8; the “degenerative, number of embryos” value stood at 2; the “early Blast/d3, number of embryos” value came to 14.

(Values after patent publication US12060573B2, “Stabilized amorphous calcium carbonate as a supplement for cell culture media” (AMORPHICAL LTD., priority 2016, dated 2024).)
